# Calls of active or inactive are those of the source. No cut-off for these calls is given here.
# Experiments:
# [1] = biological target: Histone deacetylase (Homo sapiens) (UniProt Q13547+O15379+Q9UBN7+Q92769+Q9UQL6+Q8WUI4+Q9BY41+Q96DB2+P56524+Q9UKV0+Q969S8); assay: Inhibition of HDAC in human MDA-MB-231 cells assessed as increase of intracellular acetylated histone H3 level at 1 to 4 uM measured after 24 hrs by Western blot assay; assay type: cell-based; conditions: dose 1-4 µM
# MDA-MB-231 [2] = assay: Induction of apoptosis in human MDA-MB-231 cells assessed as necrotic cells at 2 uM measured after 24 hrs by Annexin V-FITC/PI staining based flowcytometry (reference value: 0.94%); assay type: functional
# MDA-MB-231 [3] = assay: Induction of apoptosis in human MDA-MB-231 cells assessed as late apoptotic cells at 2 uM measured after 24 hrs by Annexin V-FITC/PI staining based flowcytometry ( Rvb = 5.28%); assay type: functional
# MDA-MB-231 [4] = assay: Potency index, ratio of crizotinib IC50 to test compound IC50 for human MDA-MB-231 cells assessed as inhibition of cell proliferation measured after 72 hrs by CCK8 assay; assay type: functional
# MDA-MB-231 [5] = assay: Induction of apoptosis in human MDA-MB-231 cells assessed as orange-red fluorescence intensity at 1 to 4 uM measured after 24 hrs by AO/EB staining based fluorescence microscopy; assay type: functional, cell-based; conditions: dose 1-4 µM
# NCI-H2228 = assay: Potency index, ratio of crizotinib IC50 to test compound IC50 for human NCI-H2228 cells harboring EML4/ALK […] assessed as inhibition of cell proliferation measured after 72 hrs by CCK8 assay; assay type: functional
# MDA-MB-231 [6] = assay: Induction of apoptosis in human MDA-MB-231 cells assessed as late apoptotic cells at 1 uM measured after 24 hrs by Annexin V-FITC/PI staining based flowcytometry ( Rvb = 5.28%); assay type: functional
# A549 = assay: cells; assay type: functional, cell-based; conditions: Homo sapiens, A549, 72 h
# Description: Antiproliferative activity against human A549 cells assessed as inhibition of cell proliferation measured after 72 hrs by CCK8 assay
# SH-SY5Y [7] = assay: Induction of apoptosis in human SH-SY5Y cells assessed as viable cells at 2 uM measured after 24 hrs by Annexin V-FITC/PI staining based flowcytometry (reference value: 77.05%); assay type: functional; conditions: read-out: Activity
# [8] = biological target: T1, ALK tyrosine kinase receptor (Homo sapiens, UniProt Q9UM73); assay: Inhibition of ALK (unknown origin) at 100 nM preincubated for 10 mins followed by addition of substrate and ATP for 25 mins by caliper EZ reader method; conditions: time 35.0 min
# T1 sequence (Q9UM73 19-1620 limits assumed): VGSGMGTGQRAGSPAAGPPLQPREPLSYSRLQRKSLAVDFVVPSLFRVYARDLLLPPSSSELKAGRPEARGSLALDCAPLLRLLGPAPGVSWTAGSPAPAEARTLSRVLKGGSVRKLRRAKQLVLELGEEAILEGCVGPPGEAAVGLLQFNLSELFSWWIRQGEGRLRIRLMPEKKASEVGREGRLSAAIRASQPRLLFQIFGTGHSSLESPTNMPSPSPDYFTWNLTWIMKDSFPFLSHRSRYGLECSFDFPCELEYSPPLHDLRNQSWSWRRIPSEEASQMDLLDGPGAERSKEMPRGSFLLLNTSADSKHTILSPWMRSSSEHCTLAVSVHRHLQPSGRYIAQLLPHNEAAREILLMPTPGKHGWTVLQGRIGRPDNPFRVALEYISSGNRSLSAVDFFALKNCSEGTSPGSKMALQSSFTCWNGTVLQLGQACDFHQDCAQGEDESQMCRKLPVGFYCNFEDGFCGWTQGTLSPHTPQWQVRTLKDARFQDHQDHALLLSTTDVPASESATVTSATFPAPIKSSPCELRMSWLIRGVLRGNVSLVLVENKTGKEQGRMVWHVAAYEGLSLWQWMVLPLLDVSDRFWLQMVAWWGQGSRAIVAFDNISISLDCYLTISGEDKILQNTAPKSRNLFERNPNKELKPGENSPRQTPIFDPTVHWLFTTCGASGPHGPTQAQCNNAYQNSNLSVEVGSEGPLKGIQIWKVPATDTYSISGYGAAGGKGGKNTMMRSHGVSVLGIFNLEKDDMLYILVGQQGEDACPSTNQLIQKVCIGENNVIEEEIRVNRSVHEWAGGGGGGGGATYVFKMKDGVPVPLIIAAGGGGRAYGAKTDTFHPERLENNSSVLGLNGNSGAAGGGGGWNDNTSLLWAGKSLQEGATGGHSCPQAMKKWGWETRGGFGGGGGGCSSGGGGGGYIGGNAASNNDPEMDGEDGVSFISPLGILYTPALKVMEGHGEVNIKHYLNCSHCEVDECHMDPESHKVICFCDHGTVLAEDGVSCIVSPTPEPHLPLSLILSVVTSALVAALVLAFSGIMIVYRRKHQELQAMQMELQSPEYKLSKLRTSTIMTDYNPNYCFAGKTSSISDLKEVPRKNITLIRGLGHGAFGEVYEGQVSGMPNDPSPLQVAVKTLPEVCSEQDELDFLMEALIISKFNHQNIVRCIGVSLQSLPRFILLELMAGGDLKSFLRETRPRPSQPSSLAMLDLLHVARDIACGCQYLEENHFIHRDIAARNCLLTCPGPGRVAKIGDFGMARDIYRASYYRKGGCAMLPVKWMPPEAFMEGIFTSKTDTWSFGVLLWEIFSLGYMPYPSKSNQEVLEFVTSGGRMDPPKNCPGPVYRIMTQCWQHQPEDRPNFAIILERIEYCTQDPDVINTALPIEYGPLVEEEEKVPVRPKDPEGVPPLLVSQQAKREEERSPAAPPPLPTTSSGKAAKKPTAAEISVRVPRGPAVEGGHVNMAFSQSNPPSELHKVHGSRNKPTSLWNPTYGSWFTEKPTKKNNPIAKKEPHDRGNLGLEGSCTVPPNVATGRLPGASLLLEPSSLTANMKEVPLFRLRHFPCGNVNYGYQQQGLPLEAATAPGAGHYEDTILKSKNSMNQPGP
# SH-SY5Y [9] = assay: Cell cycle arrest in human SH-SY5Y cells assessed as accumulation of cells at S phase at 1 uM measured after 24 hrs by PI staining based flowcytometry method (reference value: 27.69%); assay type: functional
# MDA-MB-231 [10] = assay: Induction of apoptosis in human MDA-MB-231 cells assessed as late apoptotic cells at 4 uM measured after 24 hrs by Annexin V-FITC/PI staining based flowcytometry (reference value: 5.28%); assay type: functional
# [11] = Potency index, ratio of crizotinib IC50 to test compound IC50 for human SKNBE2 cells harboring wild type ALK assessed as inhibition of cell proliferation measured after 72 hrs by CCK8 assay; assay type: functional
# [12] = biological target: T1, ALK tyrosine kinase receptor; assay: Inhibition of human ALK in human SH-SY5Y cells assessed as inhibition of Akt phosphorylation at Ser473 residue at 4 uM measured after 24 hrs by Western blot assay; assay type: cell-based
# SH-SY5Y [13] = assay: Induction of apoptosis in human SH-SY5Y cells assessed as late apoptotic cells at 1 uM measured after 24 hrs by Annexin V-FITC/PI staining based flowcytometry (reference value: 14.32%); assay type: functional
# SH-SY5Y [14] = assay: Potency index, ratio of crizotinib IC50 to test compound IC50 for human SH-SY5Y cells harboring ALK F1174L mutant assessed as inhibition of cell proliferation measured after 72 hrs by CCK8 assay; assay type: functional
# MDA-MB-231 [15] = assay: Cell cycle arrest in human MDA-MB-231 cells assessed as accumulation of cells at G1 phase at 1 uM measured after 24 hrs by PI staining based flowcytometry method (reference value: 55.32%); assay type: functional
# SH-SY5Y [16] = assay: Induction of apoptosis in human SH-SY5Y cells assessed as early apoptotic cells at 2 uM measured after 24 hrs by Annexin V-FITC/PI staining based flowcytometry (reference value: 0.82%); assay type: functional
# SH-SY5Y [17] = assay: Induction of apoptosis in human SH-SY5Y cells assessed as early apoptotic cells at 1 uM measured after 24 hrs by Annexin V-FITC/PI staining based flowcytometry (reference value: 0.82%); assay type: functional
# MDA-MB-231 [18] = assay: Inhibition of colony formation in human MDA-MB-231 cells at 0.1 to 0.4 uM incubated for 3 days followed by incubation in drug-free medium for 12 days by crystal violet staining based assay; assay type: functional, cell-based; conditions: dose 0.1-0.4 µM, time 3.0 day
# Homo sapiens = species: Homo sapiens; assay: Inhibition of human CDK at 1 uM
# SH-SY5Y [19] = assay: Cell cycle arrest in human SH-SY5Y cells assessed as accumulation of cells at S phase at 2 uM measured after 24 hrs by PI staining based flowcytometry method (reference value: 27.69%); assay type: functional
# SH-SY5Y [20] = assay: Cell cycle arrest in human SH-SY5Y cells assessed as accumulation of cells at G1 phase at 4 uM measured after 24 hrs by PI staining based flowcytometry method (reference value: 59.8%); assay type: functional
# MDA-MB-231 [21] = assay: Induction of apoptosis in human MDA-MB-231 cells assessed as necrotic cells at 4 uM measured after 24 hrs by Annexin V-FITC/PI staining based flowcytometry (reference value: 0.98%); assay type: functional
# [22] = Cmax in Sprague-Dawley rat at 1 mg/kg, iv measured for 12 hrs by LC-MS/MS analysis; assay type: ADME, organism-based; design: route intravenous, time 12 hrs, dose 1 mg/kg; conditions: in vivo
# SH-SY5Y [23] = assay: Cell cycle arrest in human SH-SY5Y cells assessed as accumulation of cells at G2 phase at 2 uM measured after 24 hrs by PI staining based Flowcytometry method (reference value: 13.23%); assay type: functional
# SH-SY5Y [24] = assay: Induction of apoptosis in human SH-SY5Y cells assessed as viable cells at 1 uM measured after 24 hrs by Annexin V-FITC/PI staining based flowcytometry (reference value: 77.05%); assay type: functional; conditions: read-out: Activity
# SH-SY5Y [25] = assay: Cell cycle arrest in human SH-SY5Y cells assessed as accumulation of cells at G1 phase at 1 uM measured after 24 hrs by PI staining based flowcytometry method (reference value: 59.8%); assay type: functional
# MDA-MB-231 [26] = assay: Induction of apoptosis in human MDA-MB-231 cells assessed as necrotic cells at 1 uM measured after 24 hrs by Annexin V-FITC/PI staining based flowcytometry (reference value: 0.94%); assay type: functional
# MDA-MB-231 [27] = assay: Induction of apoptosis in human MDA-MB-231 cells assessed as viable cells at 2 uM measured after 24 hrs by Annexin V-FITC/PI staining based flowcytometry (reference value: 93.14%); assay type: functional; conditions: read-out: Activity
# HepG2 = assay: Potency index, ratio of ceritinib IC50 to test compound IC50 for human HepG2 cells assessed as inhibition of cell proliferation measured after 72 hrs by CCK8 assay; assay type: functional
# [28] = biological target: T1, ALK tyrosine kinase receptor; assay: Inhibition of ALK in human MDA-MB-231 cells assessed as inhibition of ALK phosphorylation at Tyr1278 residue measured after 24 hrs by Western blot assay; assay type: cell-based; conditions: dose 1-4 µM
# MDA-MB-231 [29] = assay: Cell cycle arrest in human MDA-MB-231 cells assessed as accumulation of cells at S phase at 2 uM measured after 24 hrs by PI staining based flowcytometry method (reference value: 20.81%); assay type: functional
smiles,measurement,setting,value
CC(C)S(=O)(=O)c1ccccc1Nc1nc(Nc2ccc(NC(=O)CCCCCCC(=O)NO)cc2)ncc1Cl,inhibition,[1],Active
same,Activity,MDA-MB-231 [2],1.68%
same,Activity,MDA-MB-231 [3],7.72%
same,Ratio IC50,MDA-MB-231 [4],3
same,Activity,MDA-MB-231 [5],Active
same,Ratio IC50,NCI-H2228,3
same,Activity,MDA-MB-231 [6],8.79%
same,IC50,A549,460 nM
same,viability at 2 µM,SH-SY5Y [7],58.6%
same,inhibition,[8],96.6%
same,Activity,SH-SY5Y [9],18.33%
same,Activity,MDA-MB-231 [10],14.85%
same,Ratio IC50,[11],3
same,inhibition,[12],Active
same,Activity,SH-SY5Y [13],21.05%
same,Ratio IC50,SH-SY5Y [14],3
same,Activity,MDA-MB-231 [15],35.05%
same,Activity,SH-SY5Y [16],4.02%
same,Activity,SH-SY5Y [17],1.21%
same,inhibition,MDA-MB-231 [18],Active
same,inhibition,Homo sapiens,95%
same,Activity,SH-SY5Y [19],20.49%
same,Activity,SH-SY5Y [20],4.38%
same,Activity,MDA-MB-231 [21],3.86%
same,Cmax,[22],1480 ng/mL
same,Activity,SH-SY5Y [23],75.94%
same,viability at 1 µM,SH-SY5Y [24],87.9%
same,Activity,SH-SY5Y [25],32.97%
same,Activity,MDA-MB-231 [26],1.36%
same,viability at 2 µM,MDA-MB-231 [27],85.1%
same,Ratio IC50,HepG2,3
same,inhibition,[28],Dose-Dependent Effect
same,Activity,MDA-MB-231 [29],21.32%

# Source: ChEMBL document CHEMBL4828709, “Discovery of 2,4-pyrimidinediamine derivatives as potent dual inhibitors of ALK and HDAC” (Eur J Med Chem, 2021)
